From PubChem BioAssay (NCI) come the findings set out here.

Structures are written as SMILES. Where “and” joins values, the source holds several entries; their conditions need not be identical. Equal entries are not always repeated.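 Exposure lasted 48 hours, with cells grown in 96-well plates and compounds tested at five concentrations. GI50 marks 50% less growth. TGI: concentration producing complete growth inhibition.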 A value given as a limit tells only on which side of the number the result lay.

Among the test systems are OVCAR-5 ovarian; HL-60(TB) leukemia; RXF 393 renal; SK-MEL-28 melanoma; CAKI-1 renal; SW-620 colon; EKVX NSCLC; UACC-62 melanoma; OVCAR-4 ovarian; IGROV1 ovarian.
What all share (test): NCI tumour cell line growth inhibition, 48 h

With `CC(C)(C)OC(=O)N1C[C@H](CC(=O)OCc2ccccc2)C[C@H]1C(=O)OCC(Cl)(Cl)Cl`, the TGI with OVCAR-5 ovarian, in the assay on HL-60(TB) leukemia, with RXF 393 renal, in the assay on SK-MEL-28 melanoma, in the assay on CAKI-1 renal and with SW-620 colon was over 50 µM each time. In addition, the TGI in the assay on EKVX NSCLC, in the assay with UACC-62 melanoma and in the assay on OVCAR-4 ovarian was over 50 µM throughout.

On to `O=CC(O)C(O)C(O)COc1cc(CO)cc2c1C(=O)c1ccccc1C2=O` (stereo not drawn), for which the TGI with IGROV1 ovarian, with OVCAR-5 ovarian, in the assay on HL-60(TB) leukemia, with RXF 393 renal, in the assay on SK-MEL-28 melanoma and in the assay with CAKI-1 renal was over 100 µM in each case. Also, the TGI with SW-620 colon, in the assay with EKVX NSCLC, in the assay with UACC-62 melanoma and with OVCAR-4 ovarian was over 100 µM throughout.

Take `COc1ccc(Cc2nc3cc(Cl)ccc3o2)cc1`: the TGI in the assay on IGROV1 ovarian is over 100 µM; in the assay on OVCAR-5 ovarian it was over 100 µM; with HL-60(TB) leukemia, over 100 µM; in the assay with RXF 393 renal, 70.2 µM; with SK-MEL-28 melanoma it was over 100 µM; in the assay on CAKI-1 renal, over 100 µM. Besides, the TGI with SW-620 colon is over 100 µM; with EKVX NSCLC, 78.6 µM; in the assay on UACC-62 melanoma, over 100 µM; with OVCAR-4 ovarian it was over 100 µM.

Take `CC(C)(C)c1ccc(O)c(Br)c1`: the TGI with IGROV1 ovarian, in the assay with OVCAR-5 ovarian, with HL-60(TB) leukemia, in the assay on RXF 393 renal, in the assay with SK-MEL-28 melanoma and in the assay on SW-620 colon was over 100 µM in each case. For the same compound, the TGI in the assay with EKVX NSCLC, in the assay on UACC-62 melanoma and in the assay on OVCAR-4 ovarian was over 100 µM in each case.

`NCCCCN`: the TGI in the assay on IGROV1 ovarian was over 100 µM; in the assay on OVCAR-5 ovarian it was over 100 µM; in the assay with HL-60(TB) leukemia, over 100 µM; in the assay on RXF 393 renal it was over 100 µM; in the assay on SK-MEL-28 melanoma, over 100 µM; in the assay on CAKI-1 renal it was 30.2 µM. Further, the TGI is over 100 µM in the assay on SW-620 colon, over 100 µM in the assay with EKVX NSCLC, over 100 µM with UACC-62 melanoma and 51.5 µM in the assay with OVCAR-4 ovarian.

`C/C(=C\CNc1ncnc2nc(Cl)[nH]c12)CO`: the TGI with IGROV1 ovarian, in the assay with OVCAR-5 ovarian, with HL-60(TB) leukemia, with RXF 393 renal, in the assay with SK-MEL-28 melanoma and in the assay on CAKI-1 renal was over 100 µM throughout. Further, the TGI in the assay on SW-620 colon, with EKVX NSCLC and in the assay on OVCAR-4 ovarian was over 100 µM throughout.

Take `C=C1CCCC(C)(C)[C@@H]1CC/C(C)=C/Cn1c2cccc(=O)c-2nc2ccccc21`: the GI50 in the assay with IGROV1 ovarian was 2.71 µM; in the assay with OVCAR-5 ovarian, 27.1 µM; in the assay on SK-MEL-28 melanoma, 1.82 µM; in the assay with SW-620 colon it was 5.87 µM; with OVCAR-4 ovarian it was 6.28 µM. Moreover, the TGI in the assay on IGROV1 ovarian was 8.87 µM and 6.11 µM; in the assay on HL-60(TB) leukemia, 0.354 µM; with SK-MEL-28 melanoma, 3.46 µM and 17.6 µM; with CAKI-1 renal, 10.7 µM; in the assay with EKVX NSCLC, 11.4 µM; with UACC-62 melanoma it was 2.47 µM.

Turning to `C[C@H](Nc1ccc(C#N)n(C)c1=O)c1cc2cc(Cl)ccc2[nH]c1=O`, the GI50 is 16 µM with IGROV1 ovarian; 66.6 µM with OVCAR-5 ovarian; 22.4 µM in the assay on HL-60(TB) leukemia; 13.3 µM with RXF 393 renal; 28.5 µM with SK-MEL-28 melanoma; 19.6 µM in the assay with CAKI-1 renal. Further, the GI50 with SW-620 colon is 46.3 µM; in the assay on EKVX NSCLC, 21.1 µM; with UACC-62 melanoma, 20.1 µM; with OVCAR-4 ovarian, 19.3 µM. The TGI in the assay with IGROV1 ovarian was 89.7 µM; with OVCAR-5 ovarian, over 100 µM; in the assay with HL-60(TB) leukemia, 58.5 µM; in the assay on RXF 393 renal it was 67.7 µM; in the assay on SK-MEL-28 melanoma it was over 100 µM; in the assay on CAKI-1 renal it was over 100 µM. Moreover, the TGI in the assay with SW-620 colon was over 100 µM; in the assay with EKVX NSCLC it was over 100 µM; in the assay on UACC-62 melanoma, 77.6 µM; in the assay with OVCAR-4 ovarian, 85.6 µM.

Turning to `NC(N)=NS(=O)(=O)c1ccc(Nc2c3ccccc3nc3c(C(=O)N4CCN(CCO)CC4)ccc(Cl)c23)cc1`, the TGI in the assay with IGROV1 ovarian, in the assay with OVCAR-5 ovarian, with HL-60(TB) leukemia, with RXF 393 renal, with SK-MEL-28 melanoma and in the assay on CAKI-1 renal was over 100 µM throughout. Further, the TGI with UACC-62 melanoma and in the assay on OVCAR-4 ovarian was over 100 µM each time.

On to `Clc1ccc(NCc2nnc(COc3ccc(OCc4nnc(CNc5ccc(Cl)cc5)o4)c(Cl)c3)o2)cc1`, for which the TGI with IGROV1 ovarian is over 100 µM; in the assay on OVCAR-5 ovarian, over 100 µM; in the assay on HL-60(TB) leukemia, 27 µM; with RXF 393 renal, over 100 µM; in the assay on SK-MEL-28 melanoma it was over 100 µM; with CAKI-1 renal, over 100 µM. Moreover, the TGI in the assay with SW-620 colon, in the assay with EKVX NSCLC and with UACC-62 melanoma was over 100 µM in each case.

With `O=P(O)(O)OP(=O)(O)O`, the TGI in the assay on IGROV1 ovarian, in the assay on OVCAR-5 ovarian, in the assay with HL-60(TB) leukemia, with RXF 393 renal, in the assay on SK-MEL-28 melanoma and in the assay on CAKI-1 renal was over 100 µM in each case. The TGI with SW-620 colon, in the assay with EKVX NSCLC, in the assay with UACC-62 melanoma and in the assay with OVCAR-4 ovarian was over 100 µM throughout.

Regarding `CCN(CC)/[N+]([O-])=N/OC`, the TGI in the assay on IGROV1 ovarian, in the assay with OVCAR-5 ovarian, in the assay on HL-60(TB) leukemia, in the assay with RXF 393 renal, in the assay with SK-MEL-28 melanoma and in the assay with SW-620 colon was over 100 µM throughout. Further, the TGI in the assay on EKVX NSCLC and in the assay with UACC-62 melanoma was over 100 µM in each case.

Regarding `CC(Br)C(=O)c1ccc2cc(Br)c3ccccc3c2c1` (stereo not drawn), the TGI stood at 26.3 µM in the assay on IGROV1 ovarian; 31.4 µM in the assay with OVCAR-5 ovarian; 37.5 µM with HL-60(TB) leukemia; 30.2 µM in the assay with RXF 393 renal; 34 µM in the assay with SK-MEL-28 melanoma; 30.1 µM in the assay with CAKI-1 renal. Also, the TGI amounted to 26.3 µM with SW-620 colon, 28.9 µM in the assay on EKVX NSCLC, 28.7 µM in the assay with UACC-62 melanoma and 32.2 µM with OVCAR-4 ovarian.
